Values of other authors in patent US9320746B2, “Method for treating intestinal fibrosis” (Sigmoid Pharma Limited, priority 2013, dated 2016).

Conditions: extensive first-pass elimination; compared with other corticosteroid formulations

systemic bioavailability: 10-15%
Compound: CCCC1O[C@@H]2C[C@H]3[C@@H]4CCC5=CC(=O)C=C[C@]5(C)[C@H]4[C@@H](O)C[C@]3(C)[C@]2(C(=O)CO)O1 (stereo partly drawn) [budesonide, 16,17-butylidendioxy-11β,21-dihydroxy-1,4-pregnadien-3,20-dione]
